The structures appear in SMILES notation.

Regarding `Clc1ccc([C@H]2C[C@@H](c3c(Cl)cccc3Cl)n3ncnc3N2)cc1` (relative stereo) [Example 19, cis-5-(4-Chlorophenyl)-7-(2,6-dichlorophenyl)-4,5,6,7-tetrahydro-[1,2,4]triazolo[1,5-a]pyrimidine], the melting point is 246 to 247 °C.

`Fc1ccc([C@@H]2C[C@H](c3ccc(Cl)cc3)Nc3ncnn32)c(Cl)c1` (relative stereo) [Example 21, cis-7-(2-Chloro-4-fluorophenyl)-5-(4-chlorophenyl)-4,5,6,7-tetrahydro-[1,2,4]triazolo[1,5-a]pyrimidine] gave a melting point of 224 to 225 °C.

Take `Clc1ccc([C@H]2C[C@@H](c3ccccc3Cl)n3ncnc3N2)cc1` (relative stereo) [Example 22, cis-7-(2-Chlorophenyl)-5-(4-chlorophenyl)-4,5,6,7-tetrahydro[1,2,4]triazolo[1,5-a]pyrimidine]: the melting point is 202 to 204 °C.

Take `CC(C)c1ccc([C@@H]2C[C@H](c3ccc(Cl)cc3)Nc3ncnn32)cc1` (relative stereo) [Example 23, cis-5-(4-Chlorophenyl)-7-(4-isopropylphenyl)-4,5,6,7-tetrahydro[1,2,4]triazolo[1,5-a]pyrimidine]: the melting point is 194 to 195 °C.

Compound `Clc1ccc([C@H]2C[C@@H](c3ccccc3)n3ncnc3N2)cc1` (relative stereo) [Example 24, cis-5-(4-Chlorophenyl)-7-phenyl-4,5,6,7-tetrahydro-[1,2,4]triazolo[1,5-a]pyrimidine] came in with a melting point of 210 to 212 °C.

`Fc1cccc(Cl)c1[C@@H]1C[C@H](c2ccccc2Cl)Nc2ncnn21` (relative stereo) [Example 25, cis-7-(2-Chloro-6-fluorophenyl)-5-(2-chlorophenyl)-4,5,6,7-tetrahydro-[1,2,4]triazolo[1,5-a]pyrimidine] had a melting point of 271 to 272 °C.

The compound `Fc1cccc(Cl)c1[C@@H]1C[C@H](c2cccc(Cl)c2)Nc2ncnn21` (relative stereo) [Example 26, cis-7-(2-Chloro-6-fluorophenyl)-5-(3-chlorophenyl)-4,5,6,7-tetrahydro-[1,2,4]triazolo[1,5-a]pyrimidine] displayed a melting point of 262 to 263 °C.

Take `Fc1ccc([C@H]2C[C@@H](c3c(F)cccc3Cl)n3ncnc3N2)cc1` (relative stereo) [Example 27, cis-7-(2-Chloro-6-fluorophenyl)-5-(4-fluorophenyl)-4,5,6,7-tetrahydro-[1,2,4]triazolo[1,5-a]pyrimidine]: the melting point fell in the range of 240 to 241 °C.

In turn, `Fc1cccc(Cl)c1[C@@H]1C[C@H](c2ccc(Br)cc2)Nc2ncnn21` (relative stereo) [Example 28, cis-5-(4-Bromophenyl)-7-(2-chloro-6-fluorophenyl)-4,5,6,7-tetrahydro-[1,2,4]triazolo[1,5-a]pyrimidine] yielded a melting point of 246 to 247 °C.

In turn, `CCc1ccc([C@H]2C[C@@H](c3c(F)cccc3Cl)n3ncnc3N2)cc1` (relative stereo) [Example 29, cis-7-(2-Chloro-6-fluorophenyl)-5-(4-ethylphenyl)-4,5,6,7-tetrahydro-[1,2,4]triazolo[1,5-a]pyrimidine] had a melting point of 230 to 231 °C.

In turn, `COc1ccc([C@H]2C[C@@H](c3c(F)cccc3Cl)n3ncnc3N2)cc1` (relative stereo) [Example 30, cis-7-(2-Chloro-6-fluorophenyl)-5-(4-methoxyphenyl)-4,5,6,7-tetrahydro-[1,2,4]triazolo[1,5-a]pyrimidine] showed a melting point of 221 to 222 °C.

As for `Fc1cccc(Cl)c1[C@@H]1C[C@H](c2ccc(-c3ccccc3)cc2)Nc2ncnn21` (relative stereo) [Example 31, cis-5-([1,1′-Biphenyl]-4-yl)-7-(2-chloro-6-fluorophenyl)-4,5,6,7-tetrahydro-[1,2,4]triazolo[1,5-a]pyrimidine], the melting point fell in the range of 213 to 215 °C.

As to `Fc1cccc(Cl)c1[C@@H]1C[C@H](c2ccc3ccccc3c2)Nc2ncnn21` (relative stereo) [Example 32, cis-7-(2-Chloro-6-fluorophenyl)-5-(naphthalen-2-yl)-4,5,6,7-tetrahydro-[1,2,4]triazolo[1,5-a]pyrimidine], the melting point was 224 to 225 °C.

On to `Fc1cccc(Cl)c1[C@@H]1C[C@H](c2ccc(Cl)c(Cl)c2)Nc2ncnn21` (relative stereo) [Example 33, cis-7-(2-Chloro-6-fluorophenyl)-5-(3,4-dichlorophenyl)-4,5,6,7-tetrahydro-[1,2,4]triazolo[1,5-a]pyrimidine], for which the melting point is 252 to 254 °C.

For the compound `Fc1cccc(Cl)c1[C@@H]1C[C@H](c2ccc(Cl)cc2Cl)Nc2ncnn21` (relative stereo) [Example 34, cis-7-(2-Chloro-6-fluorophenyl)-5-(2,4-dichlorophenyl)-4,5,6,7-tetrahydro-[1,2,4]triazolo[1,5-a]pyrimidine], the melting point lay within 267 to 269 °C.

In turn, `Fc1ccc([C@H]2C[C@@H](c3c(F)cccc3Cl)n3ncnc3N2)c(F)c1` (relative stereo) [Example 35, cis-7-(2-Chloro-6-fluorophenyl)-5-(2,4-difluorophenyl)-4,5,6,7-tetrahydro-[1,2,4]triazolo[1,5-a]pyrimidine] gave a melting point of 225 °C.

On to `Cc1ccc([C@H]2C[C@@H](c3c(F)cccc3Cl)n3ncnc3N2)cc1C` (relative stereo) [Example 36, cis-7-(2-Chloro-6-fluorophenyl)-5-(3,4-dimethylphenyl)-4,5,6,7-tetrahydro-[1,2,4]triazolo[1,5-a]pyrimidine], for which the melting point is 223 °C.

Take `Fc1cccc(Cl)c1[C@@H]1C[C@H](c2ccccc2)Nc2ncnn21` (relative stereo) [Example 37, cis-7-(2-Chloro-6-fluorophenyl)-5-phenyl-4,5,6,7-tetrahydro-[1,2,4]triazolo[1,5-a]pyrimidine]: the melting point lay in the range of 270 to 271 °C.

On to `Fc1cccc(Cl)c1[C@@H]1C[C@H](c2ccccn2)Nc2ncnn21` (relative stereo) [Example 38, cis-7-(2-Chloro-6-fluorophenyl)-5-(pyridin-2-yl)-4,5,6,7-tetrahydro-[1,2,4]triazolo[1,5-a]pyrimidine], for which the melting point was found to be 232 °C.

`Fc1cccc(Cl)c1C1C=C(c2ccc(Cl)cc2)Nc2ncnn21` (stereo not shown) [Example 1, 7-(2-Chloro-6-fluorophenyl)-5-(4-chlorophenyl)-4,7-dihydro-[1,2,4]triazolo[1,5-a]pyrimidine] came in with a melting point of 213 to 215 °C.

For the compound `Clc1ccc(C2=CC(c3c(Cl)cccc3Cl)n3ncnc3N2)cc1` (stereo not shown) [Example 2, 5-(4-Chlorophenyl)-7-(2,6-dichlorophenyl)-4,7-dihydro-[1,2,4]triazolo[1,5-a]pyrimidine], the melting point amounted to 235 °C.

Consider `Fc1ccc(C2C=C(c3ccc(Cl)cc3)Nc3ncnn32)c(Cl)c1` (stereo not shown) [Example 4, 7-(2-Chloro-4-fluorophenyl)-5-(4-chlorophenyl)-4,7-dihydro-[1,2,4]triazolo[1,5-a]pyrimidine], for which the melting point fell in the range of 250 to 251 °C.

In turn, `Fc1cccc(Cl)c1C1C=C(c2ccccc2Cl)Nc2ncnn21` (stereo not shown) [Example 5, 7-(2-Chloro-6-fluorophenyl)-5-(2-chlorophenyl)-4,7-dihydro-[1,2,4]triazolo[1,5-a]pyrimidine] registered a melting point of 192 to 193 °C.

On to `Fc1cccc(Cl)c1C1C=C(c2cccc(Cl)c2)Nc2ncnn21` (stereo not shown) [Example 6, 7-(2-Chloro-6-fluorophenyl)-5-(3-chlorophenyl)-4,7-dihydro-[1,2,4]triazolo[1,5-a]pyrimidine], for which the melting point lay within 246 to 248 °C.

`Fc1ccc(C2=CC(c3c(F)cccc3Cl)n3ncnc3N2)cc1` (stereo not shown) [Example 7, 7-(2-Chloro-6-fluorophenyl)-5-(4-fluorophenyl)-4,7-dihydro-[1,2,4]triazolo[1,5-a]pyrimidine] came in with a melting point of 203 to 204 °C.

Regarding `Fc1cccc(Cl)c1C1C=C(c2ccc(Br)cc2)Nc2ncnn21` (stereo not shown) [Example 8, 5-(4-Bromophenyl)-7-(2-chloro-6-fluorophenyl)-4,7-dihydro-[1,2,4]triazolo[1,5-a]pyrimidine], the melting point lay in the range of 242 to 243 °C.

Regarding `CCc1ccc(C2=CC(c3c(F)cccc3Cl)n3ncnc3N2)cc1` (stereo not shown) [Example 9, 7-(2-Chloro-6-fluorophenyl)-5-(4-ethylphenyl)-4,7-dihydro-[1,2,4]triazolo[1,5-a]pyrimidine], the melting point lay in the range of 220 to 221 °C.

`COc1ccc(C2=CC(c3c(F)cccc3Cl)n3ncnc3N2)cc1` (stereo not shown) [Example 10, 7-(2-Chloro-6-fluorophenyl)-5-(4-methoxyphenyl)-4,7-dihydro-[1,2,4]triazolo[1,5-a]pyrimidine] gave a melting point of 217 to 218 °C.

In the case of `Fc1cccc(Cl)c1C1C=C(c2ccc(-c3ccccc3)cc2)Nc2ncnn21` (stereo not shown) [Example 11, 5-([1,1′-Biphenyl]-4-yl)-7-(2-chloro-6-fluorophenyl)-4,7-dihydro-[1,2,4]triazolo[1,5-a]pyrimidine], the melting point was found to be 267 °C.

Take `Fc1cccc(Cl)c1C1C=C(c2ccc3ccccc3c2)Nc2ncnn21` (stereo not shown) [Example 12, 7-(2-Chloro-6-fluorophenyl)-5-(naphthalen-2-yl)-4,7-dihydro-[1,2,4]triazolo[1,5-a]pyrimidine]: the melting point was found to be 237 °C.

The compound `Fc1cccc(Cl)c1C1C=C(c2ccc(Cl)c(Cl)c2)Nc2ncnn21` (stereo not shown) [Example 13, 7-(2-Chloro-6-fluorophenyl)-5-(3,4-dichlorophenyl)-4,7-dihydro-[1,2,4]triazolo[1,5-a]pyrimidine] showed a melting point of 246 to 247 °C.

Turning to `Fc1cccc(Cl)c1C1C=C(c2ccc(Cl)cc2Cl)Nc2ncnn21` (stereo not shown) [Example 14, 7-(2-Chloro-6-fluorophenyl)-5-(2,4-dichlorophenyl)-4,7-dihydro-[1,2,4]triazolo[1,5-a]pyrimidine], the melting point lay within 209 to 211 °C.

`Fc1ccc(C2=CC(c3c(F)cccc3Cl)n3ncnc3N2)c(F)c1` (stereo not shown) [Example 15, 7-(2-Chloro-6-fluorophenyl)-5-(2,4-difluorophenyl)-4,7-dihydro-[1,2,4]triazolo[1,5-a]pyrimidine] registered a melting point of 186 to 188 °C.

In turn, `Cc1ccc(C2=CC(c3c(F)cccc3Cl)n3ncnc3N2)cc1C` (stereo not shown) [Example 16, 7-(2-Chloro-6-fluorophenyl)-5-(3,4-dimethylphenyl)-4,7-dihydro-[1,2,4]triazolo[1,5-a]pyrimidine] had a melting point of 217 to 218 °C.

Usually melting point stands for the temperature, or range, at which the solid turns liquid.

(Values after US9533990B2, “Inhibitors of secretion of hepatitis B virus antigens” (priority 2010, dated 2017).)
